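GI50 = concentration required for 50% inhibition of growth. TGI: total growth inhibition.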
Assays:
Test in all cases: NCI tumour cell line growth inhibition, 384-well format
786-0 renal = tested on: 786-0 renal
A498 renal = tested on: A498 renal
A549 NSCLC = tested on: A549 NSCLC
ACHN renal = tested on: ACHN renal
BT-549 breast = tested on: BT-549 breast
CAKI-1 renal = tested on: CAKI-1 renal
CCRF-CEM leukemia = tested on: CCRF-CEM leukemia
COLO 205 colon = tested on: COLO 205 colon
DU-145 prostate = tested on: DU-145 prostate
EKVX NSCLC = tested on: EKVX NSCLC
HCC-2998 colon = tested on: HCC-2998 colon
HCT-116 colon = tested on: HCT-116 colon
HCT-15 colon = tested on: HCT-15 colon
HL-60(TB) leukemia = tested on: HL-60(TB) leukemia
HOP-62 NSCLC = tested on: HOP-62 NSCLC
HOP-92 NSCLC = tested on: HOP-92 NSCLC
HS 578T breast = tested on: HS 578T breast
HT29 colon = tested on: HT29 colon
IGROV1 ovarian = tested on: IGROV1 ovarian
K-562 leukemia = tested on: K-562 leukemia
KM12 colon = tested on: KM12 colon
LOX IMVI melanoma = tested on: LOX IMVI melanoma
M14 melanoma = tested on: M14 melanoma
MALME-3M melanoma = tested on: MALME-3M melanoma
MCF7 breast = tested on: MCF7 breast
MDA-MB-231 breast = tested on: MDA-MB-231 breast
MDA-MB-435 melanoma = tested on: MDA-MB-435 melanoma
MDA-MB-468 breast = tested on: MDA-MB-468 breast
MOLT-4 leukemia = tested on: MOLT-4 leukemia
NCI-H226 lung = tested on: NCI-H226 lung
NCI-H23 lung = tested on: NCI-H23 lung
NCI-H322M lung = tested on: NCI-H322M lung
NCI-H460 NSCLC = tested on: NCI-H460 NSCLC
NCI-H522 lung = tested on: NCI-H522 lung
NCI/ADR-RES ovarian = tested on: NCI/ADR-RES ovarian
OVCAR-3 ovarian = tested on: OVCAR-3 ovarian
OVCAR-4 ovarian = tested on: OVCAR-4 ovarian
OVCAR-5 ovarian = tested on: OVCAR-5 ovarian
PC-3 prostate = tested on: PC-3 prostate
RPMI-8226 leukemia = tested on: RPMI-8226 leukemia
RXF 393 renal = tested on: RXF 393 renal
SF-268 CNS = tested on: SF-268 CNS
SF-295 CNS = tested on: SF-295 CNS
SF-539 CNS = tested on: SF-539 CNS
SK-MEL-2 melanoma = tested on: SK-MEL-2 melanoma
SK-MEL-28 melanoma = tested on: SK-MEL-28 melanoma
SK-MEL-5 melanoma = tested on: SK-MEL-5 melanoma
SK-OV-3 ovarian = tested on: SK-OV-3 ovarian
SN12C renal = tested on: SN12C renal
SNB-19 CNS = tested on: SNB-19 CNS
SNB-75 CNS = tested on: SNB-75 CNS
SR leukemia = tested on: SR leukemia
SW-620 colon = tested on: SW-620 colon
T-47D breast = tested on: T-47D breast
TK-10 renal = tested on: TK-10 renal
U251 glioblastoma = tested on: U251 glioblastoma
UACC-257 melanoma = tested on: UACC-257 melanoma
UACC-62 melanoma = tested on: UACC-62 melanoma
UO-31 renal = tested on: UO-31 renal

SMILES: O=C(Nc1ccccc1/C=C/c1n[nH]c2ccccc12)c1ccccc1
- GI50 ([…]-0 renal): 1820 nM
- TGI (786-0 renal): 3.31 µM
- GI50 (A498 renal): 1840 nM
- TGI (A498 renal): 3.31 µM
- GI50 (A549 NSCLC): 1740 nM
- TGI (A549 NSCLC): 3.39 µM
- GI50 (ACHN renal): 2630 nM
- TGI (ACHN renal): 8.82 µM
- GI50 (BT-549 breast): 1950 nM
- TGI (BT-549 breast): 3.46 µM
- GI50 (CAKI-1 renal): 2460 nM
- TGI (CAKI-1 renal): 9.91 µM
- GI50 (CCRF-CEM leukemia): 1580 nM
- TGI (CCRF-CEM leukemia): 2960 nM
- GI50 (COLO 205 colon): 1300 nM
- TGI (COLO 205 colon): 2590 nM
- GI50 (DU-145 prostate): 1470 nM
- TGI (DU-145 prostate): 3.04 µM
- GI50 (EKVX NSCLC): 1430 nM
- TGI (EKVX NSCLC): 3.94 µM
- GI50 (HCC-2998 colon): 1280 nM
- TGI (HCC-2998 colon): 2580 nM
- GI50 (HCT-116 colon): 1490 nM
- TGI (HCT-116 colon): 2990 nM
- GI50 (HCT-15 colon): 1460 nM
- TGI (HCT-15 colon): 2820 nM
- GI50 (HL-60(TB) leukemia): 538 nM
- TGI (HL-60(TB) leukemia): 1880 nM
- GI50 (HOP-62 NSCLC): 1550 nM
- TGI (HOP-62 NSCLC): 2950 nM
- GI50 (HOP-92 NSCLC): 1520 nM
- TGI (HOP-92 NSCLC): 5.05 µM
- GI50 (HS 578T breast): 1650 nM
- TGI (HS 578T breast): 3.11 µM
- GI50 (HT29 colon): 1490 nM
- TGI (HT29 colon): 2850 nM
- GI50 (IGROV1 ovarian): 5.77 µM
- TGI (IGROV1 ovarian): 19.6 µM
- GI50 (K-562 leukemia): 1370 nM
- TGI (K-562 leukemia): 2770 nM
- GI50 (KM12 colon): 40.8 nM
- TGI (KM12 colon): 1010 nM
- GI50 (LOX IMVI melanoma): 1900 nM
- TGI (LOX IMVI melanoma): 3.45 µM
- GI50 (M14 melanoma): 3.42 µM
- TGI (M14 melanoma): 14.3 µM
- GI50 (MALME-3M melanoma): 1290 nM
- TGI (MALME-3M melanoma): 2680 nM
- GI50 (MCF7 breast): 514 nM
- TGI (MCF7 breast): 11.4 µM
- GI50 (MDA-MB-231 breast): 1480 nM
- TGI (MDA-MB-231 breast): 2990 nM
- GI50 (MDA-MB-435 melanoma): 1530 nM
- TGI (MDA-MB-435 melanoma): 4.46 µM
- GI50 (MDA-MB-468 breast): 1640 nM
- TGI (MDA-MB-468 breast): 3.65 µM
- GI50 (MOLT-4 leukemia): 1650 nM
- TGI (MOLT-4 leukemia): 3.35 µM
- GI50 (NCI-H226 lung): 1480 nM
- TGI (NCI-H226 lung): 8.44 µM
- GI50 (NCI-H23 lung): 1160 nM
- TGI (NCI-H23 lung): 12.4 µM
- GI50 (NCI-H322M lung): 1840 nM
- TGI (NCI-H322M lung): 3.97 µM
- GI50 (NCI-H460 NSCLC): 1480 nM
- TGI (NCI-H460 NSCLC): 2900 nM
- GI50 (NCI-H522 lung): 2360 nM
- TGI (NCI-H522 lung): 8.59 µM
- GI50 (NCI/ADR-RES ovarian): 1990 nM
- TGI (NCI/ADR-RES ovarian): 4.43 µM
- GI50 (OVCAR-3 ovarian): 1390 nM
- TGI (OVCAR-3 ovarian): 2930 nM
- GI50 (OVCAR-4 ovarian): 4.22 µM
- TGI (OVCAR-4 ovarian): 17.2 µM
- GI50 (OVCAR-5 ovarian): 1400 nM
- TGI (OVCAR-5 ovarian): 3.33 µM
- GI50 (PC-3 prostate): 1450 nM
- TGI (PC-3 prostate): 2790 nM
- GI50 (RPMI-8226 leukemia): 1560 nM
- TGI (RPMI-8226 leukemia): 2970 nM
- GI50 (RXF 393 renal): 2930 nM
- TGI (RXF 393 renal): 8.11 µM
- GI50 (SF-268 CNS): 1710 nM
- TGI (SF-268 CNS): 3.26 µM
- GI50 (SF-295 CNS): 1630 nM
- TGI (SF-295 CNS): 3 µM
- GI50 (SF-539 CNS): 2040 nM
- TGI (SF-539 CNS): 4.76 µM
- GI50 (SK-MEL-2 melanoma): 3.88 µM
- TGI (SK-MEL-2 melanoma): 5.81 µM
- GI50 (SK-MEL-28 melanoma): 2370 nM
- TGI (SK-MEL-28 melanoma): 8.16 µM
- GI50 (SK-MEL-5 melanoma): 1560 nM
- TGI (SK-MEL-5 melanoma): 6.1 µM
- GI50 (SK-OV-3 ovarian): 2870 nM
- TGI (SK-OV-3 ovarian): 11.6 µM
- GI50 (SN12C renal): 1530 nM
- TGI (SN12C renal): 2900 nM
- GI50 (SNB-19 CNS): 1980 nM
- TGI (SNB-19 CNS): 4.38 µM
- GI50 (SNB-75 CNS): 2160 nM
- TGI (SNB-75 CNS): 4.81 µM
- GI50 (SR leukemia): 1230 nM
- TGI (SR leukemia): 2510 nM
- GI50 (SW-620 colon): 1870 nM
- TGI (SW-620 colon): 5.3 µM
- GI50 (T-47D breast): 1900 nM
- TGI (T-47D breast): 4.05 µM
- GI50 (TK-10 renal): 1500 nM
- TGI (TK-10 renal): 3.14 µM
- GI50 (U251 glioblastoma): 1550 nM
- TGI (U251 glioblastoma): 2910 nM
- GI50 (UACC-257 melanoma): 1940 nM
- TGI (UACC-257 melanoma): 4.3 µM
- GI50 (UACC-62 melanoma): 1890 nM
- TGI (UACC-62 melanoma): 3.94 µM
- GI50 (UO-31 renal): 10.4 µM
- TGI (UO-31 renal): 22.3 µM

Reference: PubChem BioAssay (NCI)
